Data reported in patent publication US7250429B2, “Aminomethyl-substituted thiazolobenzimidazole compounds” (Astellas Pharma Inc., priority 2002, dated 2007).
Where a name gives a salt, the structure may show the parent alone.

Assays:
mGluR 1 = molecular target: T1, mGluR 1 (Rattus norvegicus, UniProt P23385); assay: mGluR 1 binding test with tritium-labeled ligand on rat cerebellum P2 membrane fraction; conditions: about 20 nM [3H]-6-amino-N-cyclohexyl-N,3-dimethylthiazolo[3,2-a]benzimidazole-2-carboxamide
T1 construct: Each rat (Wistar, male, 9 to 12 weeks of age) was decapitated to excise the cerebellum; from tissue; host or cells: rat (Wistar) cerebellum, P2 membrane fraction
T1 sequence (P23385 19-1199): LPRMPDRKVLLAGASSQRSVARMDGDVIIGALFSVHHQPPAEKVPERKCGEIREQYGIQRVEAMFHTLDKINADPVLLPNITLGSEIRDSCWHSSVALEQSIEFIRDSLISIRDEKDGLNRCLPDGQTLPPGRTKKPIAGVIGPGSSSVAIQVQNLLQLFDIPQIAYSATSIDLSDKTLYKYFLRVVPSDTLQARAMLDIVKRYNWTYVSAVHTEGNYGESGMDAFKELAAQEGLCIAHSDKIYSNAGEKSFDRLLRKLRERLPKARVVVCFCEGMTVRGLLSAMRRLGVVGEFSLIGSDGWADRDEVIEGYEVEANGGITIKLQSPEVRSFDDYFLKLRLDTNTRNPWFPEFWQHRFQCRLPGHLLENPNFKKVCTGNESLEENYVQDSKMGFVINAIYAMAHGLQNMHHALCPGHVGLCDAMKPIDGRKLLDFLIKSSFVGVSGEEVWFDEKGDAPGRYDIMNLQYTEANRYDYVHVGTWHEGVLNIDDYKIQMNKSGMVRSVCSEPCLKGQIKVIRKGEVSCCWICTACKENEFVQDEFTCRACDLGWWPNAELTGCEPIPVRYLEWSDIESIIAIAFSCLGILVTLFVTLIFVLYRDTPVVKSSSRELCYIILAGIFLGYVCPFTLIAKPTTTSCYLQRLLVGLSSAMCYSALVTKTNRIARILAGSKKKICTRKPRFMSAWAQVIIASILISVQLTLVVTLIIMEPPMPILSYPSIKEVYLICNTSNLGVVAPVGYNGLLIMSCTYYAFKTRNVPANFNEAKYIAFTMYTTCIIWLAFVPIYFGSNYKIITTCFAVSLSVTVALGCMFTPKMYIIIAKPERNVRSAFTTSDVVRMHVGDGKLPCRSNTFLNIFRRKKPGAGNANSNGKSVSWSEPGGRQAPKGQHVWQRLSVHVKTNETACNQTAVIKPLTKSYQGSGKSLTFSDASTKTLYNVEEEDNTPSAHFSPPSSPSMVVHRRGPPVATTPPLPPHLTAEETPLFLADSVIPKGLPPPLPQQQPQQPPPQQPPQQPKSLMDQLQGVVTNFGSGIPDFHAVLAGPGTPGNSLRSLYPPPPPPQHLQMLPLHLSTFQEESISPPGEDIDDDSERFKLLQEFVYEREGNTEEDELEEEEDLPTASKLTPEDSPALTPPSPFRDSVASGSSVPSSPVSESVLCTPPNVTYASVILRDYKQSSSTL
Description: (Test Methods) 1. The mGluR 1 Binding Activity
Effect of the compounds of the invention upon mGluR 1 was verified in accordance with the method described in the Patent Reference 3.
(Preparation of Rat Cerebellum P2 Membrane Fraction)
Each rat (Wistar, male, 9 to 12 weeks of age) was decapitated to excise the cerebellum. After weight measurement, this was homogenized in 7 to 10 volumes of 0.32 M sucrose solution. After 15 minutes of centrifugation at 900×g, the supernatant was preserved in a container (in ice). The precipitate was again homogenized in 0.32 M sucrose solution of the same volume of the first time and centrifuged at 900×g for 15 minutes. The supernatant obtained this time was combined with the previously obtained supernatant and centrifuged at 15,000×g for 20 minutes. The precipitate was homogenized in 5 mM Tris-HCl, pH 7.4, and centrifuged at 15,000×g for 15 minutes. This step was repeated again. The precipitate was homogenized in 50 mM Tris-HCl, pH 7.4, and centrifuged at 15,000×g for 15 minutes. The precipitate was homogenized in an appropriate amount of 50 mM Tris-HCl, pH 7.4, subdivided into small portions and then preserved at −80° C.
As the assay buffer, 50 mM Tris-HCl, 2.5 mM CaCl2, pH 7.4, was used. [^3H]-(6-Amino-N-cyclohexyl-N,3-dimethylthiazolo[3,2-a]benzimidazole-2-carboxamide) (specific activity; 81 Ci/mmol; Amersham), a test compound and about 0.1 mg of the rat cerebellum P2 membrane fraction were suspended to a total volume of 100 μl in a 96 well microplate and then incubated at room temperature (about 25° C.) for 45 minutes. Completion of the incubation was carried out by a filtration method using Whatman GF/B filter. Quantity of the radioactivity was measured using a liquid scintillation counter. About 20 nM of [^3H]-6-amino-N-cyclohexyl-N,3-dimethylthiazolo[3,2-a]benzimidazole-2-carboxamide was used in the competitive test, and the specific binding was defined as a portion of the total binding, which was replaced by 10 μM of 6-{[(2-methoxyethyl)amino]methyl}-N-neopentylthiazolo[3,2-a]benzimidazole-2-carboxamide (Patent Reference 3, the compound described in Example 75). Evaluation of the test compound was carried out by calculating the ratio of binding inhibition upon the specific binding.
Determination of protein was carried out using BIO-RAD DC protein assay (BIO-RAD). Bovine serum albumin was used as the standard substance.

STZ-loaded mice = assay: Streptozotocin (STZ)-induced diabetes model, tail pinch test; format: in vivo, ICR mice; conditions: at 10 mg/kg
Description: • Thomsen C., Mulvihill E. R., Haldeman B., Pickering D. S., Hampson D. R. and Suzdak P. D., A pharmacological characterization of the mGluR 1 alpha subtype of the metabotropic glutamate receptor expressed in a cloned baby hamster kidney cell line., Brain Res., Aug. 13, 1993, 619(1-2), 22-8 2. Inhibitory Effect Upon Neuropathic Pain 1) Streptozotocin (to be Referred to as STZ Hereinafter)—Induced Diabetes Model
The test was carried out by modifying a part of a report (Pharmacol. Biochem. Behav., 39, 541-544, 1991). At a dose of 200 mg/kg, STZ was intraperitoneally administered to each of ICR mice of 4 weeks of age. A preliminary test of a tail pinch test was carried out in the afternoon of the day 2 weeks after the administration, and only animals showing a reaction latency of 3 seconds or less were submitted to the next day's test. Each compound was loaded by 10 mg/kg of oral administration, and the tail pinch test was carried out after 30 minutes of the administration to calculate a difference from the value of latency measured in the preliminary test.
In this connection, normal mice unloaded with STZ show a reaction latency of 6 to 7 seconds in average by this test. STZ-loaded mice having a reaction latency of 3 seconds or less in which distinct reduction in the pain threshold was observed were used in the test of this time. […]

[1] = tested on: Salmonella typhimurium TA 98 and TA 100; assay: Reverse mutation test using a bacterium (genetic toxicity); format: cell-based; conditions: pre-incubation method, presence and absence of metabolic activation system (S9Mix)
Description: Gene mutation inducing ability of the compounds of the invention was verified by a reverse mutation test which uses a bacterium.
The test was carried out in accordance with the genetic toxicity test guideline of drugs (Iyakushin No. 1604, Nov. 1, 1999) by a pre-incubation method in the presence and absence of a metabolic activation system. However, Salmonella typhimurium TA 98 and TA 100 alone were used as the test strains.
(Reverse Mutation Test Using a Bacterium)
A 0.5 ml portion of 0.1 M sodium phosphate buffer (pH 7.4), 0.1 ml of an overnight-cultured test strain suspension and 0.1 ml of a solution of a substance to be tested were put into a test tube and shaken (60 reciprocation/min) at 37° C. for 20 minutes, and then 2 ml of soft agar kept at about 45° C. was added thereto and the mixture was spread on a minimal glucose agar plate medium (plate) and cultured at 37° C. for about 48 hours. In the case of the metabolic activation test, the same procedure was carried out by adding the same volume of S9Mix instead of the 0.1 M sodium phosphate buffer. […]
The number of colonies formed on the plate after 48 hours of culturing was counted. […]

[2] = tested on: L5/L6 spinal nerves-ligated rat; assay: L5/L6 spinal nerves-ligated rat, von Frey hair (VFH) test; format: in vivo, SD rats; conditions: 30 mg/kg oral administration; VFH test 30 minutes after administration
Description: 2) L5/L6 Spinal Nerves-Ligated Rat
The test was carried out by modifying a part of a report (PAIN, 50, 355-363, 1992). Using SD rats, left side hip nerves (L5 and L6) were ligated with a silk thread under pentobarbital anesthesia. The following test was carried out during a period of from on the 7th day to the 14th day after the operation.
Each compound was orally administered, and the von Frey hair (VFH) test was carried out 30 minutes thereafter to calculate the pain threshold value against mechanical nocuous stimulus. The measurement was carried out on the left and right hind legs.
The significant difference test was carried out using the Dunnett method on respective left and right legs between the control group and compound-administered group.

Row | SMILES | IC50 (mGluR 1) [nM] | other results
1 | CN(CC(C)(C)C)C(=O)c1cn2c(nc3ccc(CNC4COC4)cc32)s1 [Example 6, N-Methyl-N-neopentyl-6-[(oxetan-3-ylamino)methyl]thiazolo[3,2-a]benzimidazole-2-carboxamide 1.5 Fumarate] | 2 | –
2 | CN(CC(C)(C)C)C(=O)c1cn2c(nc3ccc(CNCC4(C)COC4)cc32)s1 [Example 7, N-Methyl-6-({[(3-methyloxetan-3-yl)methyl]amino}methyl)-N-neopentylthiazolo[3,2-a]benzimidazole-2-carboxamide] | 9 | –
3 | CN(CC(C)(C)C)C(=O)c1cn2c(nc3ccc(CNC[C@@H]4CCCO4)cc32)s1 [Example 11, N-Methyl-N-neopentyl-6-({[((S)-tetrahydro-2-furfuryl)methyl]amino}methyl)thiazolo[3,2-a]benzimidazole-2-carboxamide Dihydrochloride] | 3 | –
4 | CN(CC(C)(C)C)C(=O)c1cn2c(nc3ccc(CNCC4OCCO4)cc32)s1 [Example 12, 6-{[(1,3-Dioxolan-2-ylmethyl)amino]methyl}-N-methyl-N-neopentylthiazolo[3,2-a]benzimidazole-2-carboxamide dihydrochloride] | – | oral activity (STZ-loaded mice): effective; gene mutation inducing ability [1]: negative
5 | CN(CC(C)(C)C)C(=O)c1cn2c(nc3ccc(CNC4CCOCC4)cc32)s1 [Example 15, N-Methyl-N-neopentyl-6-{[(tetrahydro-2H-pyran-4-yl)amino]methyl}thiazolo[3,2-a]benzimidazole-2-carboxamide dihydrochloride] | 26 | efficacy upon the threshold value reduction in the operated side [2]: showed their efficacy
6 | CN(CC(C)(C)C)C(=O)c1cn2c(nc3ccc(CNCC4CCOCC4)cc32)s1 [Example 17, N-Methyl-N-neopentyl-6-({[(tetrahydro-2H-pyran-4-yl)methyl]amino}methyl)thiazolo[3,2-a]benzimidazole-2-carboxamide dihydrochloride] | 6 | efficacy upon the threshold value reduction in the operated side [2]: showed their efficacy
7 | CC(C)(C)CNC(=O)c1cn2c(nc3ccc(CN[C@@H]4CCOC4)cc32)s1 [Example 23, (R)-N-Neopentyl-6-{[(tetrahydro-3-furyl)amino]methyl}thiazolo[3,2-a]benzimidazole-2-carboxamide dihydrochloride] | 30 | –
8 | CC(C)(C)CNC(=O)c1cn2c(nc3ccc(CNC[C@H]4CCCO4)cc32)s1 [Example 24, (R)-N-Neopentyl-6-({[(tetrahydro-2-furyl)methyl]amino}methyl)thiazolo[3,2-a]benzimidazole-2-carboxamide dihydrochloride] | 11 | –
9 | CC(C)(C)CNC(=O)c1cn2c(nc3ccc(CNCC4OCCO4)cc32)s1 [Example 26, 6-{[(1,3-Dioxolan-2-ylmethyl)amino]methyl}-N-neopentylthiazolo[3,2-a]benzimidazole-2-carboxamide dihydrochloride] | 8 | –
10 | CC(C)(C)CNC(=O)c1cn2c(nc3ccc(CNCC4CCOCC4)cc32)s1 [Example 28, N-Neopentyl-6-({[(tetrahydro-2H-pyran-4-yl)methyl]amino}methyl)thiazolo[3,2-a]benzimidazole-2-carboxamide dihydrochloride] | 48 | efficacy upon the threshold value reduction in the operated side [2]: showed their efficacy
11 | CN(CC1OCCO1)C(=O)c1cn2c(nc3ccc(CNC4COC4)cc32)s1 [Example 31, N-(1,3-Dioxolan-2-ylmethyl)-N-methyl-6-[(oxetan-3-ylamino)methyl]thiazolo[3,2-a]benzimidazole-2-carboxamide] | 43 | –
12 | CN(CC1OCCO1)C(=O)c1cn2c(nc3ccc(CN[C@@H]4CCOC4)cc32)s1 [Example 34, N-(1,3-Dioxolan-2-ylmethyl)-N-methyl-6-{[(R)-(tetrahydro-3-furyl)amino]methyl}thiazolo[3,2-a]benzimidazole-2-carboxamide dihydrochloride] | 37 | –
13 | CN(CC1OCCO1)C(=O)c1cn2c(nc3ccc(CNC[C@H]4CCCO4)cc32)s1 [Example 35, N-(1,3-Dioxolan-2-ylmethyl)-N-methyl-6-({[((R)-tetrahydro-2-furyl)methyl]amino}methyl)thiazolo[3,2-a]benzimidazole-2-carboxamide dihydrochloride] | 12 | –
14 | CN(CC1OCCO1)C(=O)c1cn2c(nc3ccc(CNCC4OCCO4)cc32)s1 [Example 37, N-(1,3-Dioxolan-2-ylmethyl)-6-{[(1,3-dioxolan-2-ylmethyl)amino]methyl}-N-methylthiazolo[3,2-a]benzimidazole-2-carboxamide dihydrochloride] | 8 | –
15 | CN(CC1OCCO1)C(=O)c1cn2c(nc3ccc(CNCC4CCOCC4)cc32)s1 [Example 39, N-(1,3-Dioxolan-2-ylmethyl)-N-methyl-6-({[(tetrahydro-2H-pyran-4-yl)methyl]amino}methyl)thiazolo[3,2-a]benzimidazole-2-carboxamide dihydrochloride] | 26 | –
